The text below walks through data of patent US12545673B2, “Imidazopyridine derivative and pharmaceutical composition comprising same as active ingredient” (TSD LIFE SCIENCES CO., LTD., priority 2019, dated 2026).

Test [1] deals with acute lymphoblastic leukemia cell line Jurkat. As to the kind of experiment: Cancer cell proliferation inhibitory activity evaluation 2 (CCK-8), Jurkat. To be noted: Homo sapiens. The test is classed as cell-based.
Test [2] relates to gastric cancer cell line AGS. Kind of test: Cancer cell proliferation inhibitory activity evaluation 2 (CCK-8), AGS. The test is classed as cell-based. Conditions: Homo sapiens, read-out: Cancer cell proliferation inhibitory activity AGS.
Another test has as its target MLK3 (Homo sapiens (Human), UniProt Q16584). Kind of test: Evaluation of inhibitory activity of enzyme units, MLK3 ([γ-33P]-ATP filter assay). Conditions: read-out: IC50(nM) MLK3.
Another test has as its system α-SMA. Kind of test: Fibrosis inhibition evaluation 2, palmitic acid-induced HepG2, real-time PCR, α-SMA. To be noted: palmitic acid-induced HepG2 (Table 8).
Another test relates to Fibronectin-1. As to the kind of experiment: Fibrosis inhibition evaluation 2, palmitic acid-induced HepG2, real-time PCR, Fibronectin-1.
The next test concerns TGF-β1. As to the kind of experiment: Fibrosis inhibition evaluation 2, palmitic acid-induced HepG2, real-time PCR, TGF-β1. In general terms: In qPCR the cycle at which signal appears reflects the starting amount.
Test [3] deals with acute myeloid leukemia cell line U937. Kind of test: Cancer cell proliferation inhibitory activity evaluation 2 (CCK-8), U937. To be noted: Homo sapiens, read-out: Cancer cell proliferation inhibitory activity U937. The test is classed as cell-based.
A further test addresses LRRK2 mutant (G2019S) (Homo sapiens (Human), UniProt Q5S007, G2019S). Kind of test: Evaluation of inhibitory activity against LRRK2 (affinity bead competition binding), G2019S mutant. To be noted: read-out: Residual active values (%) LRRK2(G2019S); for remaining binding at 0.1 µM: 100 nM; for remaining binding at 0.5 µM: 500 nM. Here is the method: (§1) In order to identify the activity inhibitory effect on the LRRK2 wild-type and LRRK2 mutant (G2019S) kinase of the example compound according to the present disclosure, BL21-derived E. coli bacteria (E. coli) were cultured in a 24-well plate until the growth phase (log phase). After culturing, T7 phage tagged with LRRK2 wild-type or LRRK2 mutant (G2019S) was used to infect the multiplicity of infection (MOI) at 0.4. Thereafter, the E. coli bacteria were stirred at 32° C. for 90 to 150 minutes to allow dissolution. The lysate of E. coli bacteria was centrifuged (6,000×g) and filtered (0.2 μm), and the obtained tagged T7 phage […] a DNA-tagged kinase protein (LRRK2 or LRRK2 G2019S) was obtained.
(§2) After blocking the biotinylated ligand with extra biotin, it is washed with Pierce's buffer, SeaBlock (1% BSA, 0.05% Tween 20, 1 mM DTT) to remove unbound ligand and reduce non-specific binding.
(§3) The compound was prepared at a concentration of 40× in 100% DMSO and used after dilution, and all binding reactions were performed in a final volume of 0.02 ml in a 384-well plate.
(§4) The activity inhibitory effect on the LRRK2 wild-type and LRRK2 mutant (G2019S) kinases of the example compounds according to the present disclosure was measured and shown in Table 10 below.

A further test addresses LRRK2 wild-type (Homo sapiens (Human), UniProt Q5S007). As to the kind of experiment: Evaluation of inhibitory activity against LRRK2 (affinity bead competition binding), wild-type. To be noted: read-out: Residual active values (%) LRRK2; for remaining binding at 0.1 µM: 100 nM; for remaining binding at 0.5 µM: 500 nM. As for the experimental part: as §1, §2, §3, §4
The target of a further test is MLK2 (Homo sapiens (Human), UniProt Q02779). As to the kind of experiment: Evaluation of inhibitory activity of enzyme units, MLK2 ([γ-33P]-ATP filter assay). The test is classed as biochemical.
The target in the next test is MLK1 (Homo sapiens (Human), UniProt P80192). As to the kind of experiment: Evaluation of inhibitory activity of enzyme units, MLK1 ([γ-33P]-ATP filter assay). The test is classed as biochemical.
The test system of test [4] is human lung cancer cell line A549. Kind of test: Cancer cell proliferation inhibitory activity evaluation 2 (CCK-8), A549. The test is classed as cell-based.
For test [5], the system named is gastric cancer cell line Hs746T. Kind of test: Cancer cell proliferation inhibitory activity evaluation 2 (CCK-8), Hs746T. The test is classed as cell-based. To be noted: Homo sapiens.
[6] abbreviates: 72 h, read-out: Cancer cell proliferation inhibitory activity Jurkat.
The mark [7] stands for this setting: 10 μM, 72 hours, CCK-8, read-out: Cancer cell proliferation inhibitory activity Jurkat.
Where [8] appears, read: U-937, 10 μM, 72 hours, CCK-8 (Table 3).
Where [9] appears, read: A549, 10 μM, 72 hours, CCK-8, read-out: Cancer cell proliferation inhibitory activity A549.
[10] abbreviates: 10 μM, 72 hours, CCK-8, read-out: Cancer cell proliferation inhibitory activity Hs746T.

Like-named read-outs stand apart in the source and are kept apart here.

Sequence of LRRK2 mutant (G2019S) (Q5S007 whole entry G2019S, looked up): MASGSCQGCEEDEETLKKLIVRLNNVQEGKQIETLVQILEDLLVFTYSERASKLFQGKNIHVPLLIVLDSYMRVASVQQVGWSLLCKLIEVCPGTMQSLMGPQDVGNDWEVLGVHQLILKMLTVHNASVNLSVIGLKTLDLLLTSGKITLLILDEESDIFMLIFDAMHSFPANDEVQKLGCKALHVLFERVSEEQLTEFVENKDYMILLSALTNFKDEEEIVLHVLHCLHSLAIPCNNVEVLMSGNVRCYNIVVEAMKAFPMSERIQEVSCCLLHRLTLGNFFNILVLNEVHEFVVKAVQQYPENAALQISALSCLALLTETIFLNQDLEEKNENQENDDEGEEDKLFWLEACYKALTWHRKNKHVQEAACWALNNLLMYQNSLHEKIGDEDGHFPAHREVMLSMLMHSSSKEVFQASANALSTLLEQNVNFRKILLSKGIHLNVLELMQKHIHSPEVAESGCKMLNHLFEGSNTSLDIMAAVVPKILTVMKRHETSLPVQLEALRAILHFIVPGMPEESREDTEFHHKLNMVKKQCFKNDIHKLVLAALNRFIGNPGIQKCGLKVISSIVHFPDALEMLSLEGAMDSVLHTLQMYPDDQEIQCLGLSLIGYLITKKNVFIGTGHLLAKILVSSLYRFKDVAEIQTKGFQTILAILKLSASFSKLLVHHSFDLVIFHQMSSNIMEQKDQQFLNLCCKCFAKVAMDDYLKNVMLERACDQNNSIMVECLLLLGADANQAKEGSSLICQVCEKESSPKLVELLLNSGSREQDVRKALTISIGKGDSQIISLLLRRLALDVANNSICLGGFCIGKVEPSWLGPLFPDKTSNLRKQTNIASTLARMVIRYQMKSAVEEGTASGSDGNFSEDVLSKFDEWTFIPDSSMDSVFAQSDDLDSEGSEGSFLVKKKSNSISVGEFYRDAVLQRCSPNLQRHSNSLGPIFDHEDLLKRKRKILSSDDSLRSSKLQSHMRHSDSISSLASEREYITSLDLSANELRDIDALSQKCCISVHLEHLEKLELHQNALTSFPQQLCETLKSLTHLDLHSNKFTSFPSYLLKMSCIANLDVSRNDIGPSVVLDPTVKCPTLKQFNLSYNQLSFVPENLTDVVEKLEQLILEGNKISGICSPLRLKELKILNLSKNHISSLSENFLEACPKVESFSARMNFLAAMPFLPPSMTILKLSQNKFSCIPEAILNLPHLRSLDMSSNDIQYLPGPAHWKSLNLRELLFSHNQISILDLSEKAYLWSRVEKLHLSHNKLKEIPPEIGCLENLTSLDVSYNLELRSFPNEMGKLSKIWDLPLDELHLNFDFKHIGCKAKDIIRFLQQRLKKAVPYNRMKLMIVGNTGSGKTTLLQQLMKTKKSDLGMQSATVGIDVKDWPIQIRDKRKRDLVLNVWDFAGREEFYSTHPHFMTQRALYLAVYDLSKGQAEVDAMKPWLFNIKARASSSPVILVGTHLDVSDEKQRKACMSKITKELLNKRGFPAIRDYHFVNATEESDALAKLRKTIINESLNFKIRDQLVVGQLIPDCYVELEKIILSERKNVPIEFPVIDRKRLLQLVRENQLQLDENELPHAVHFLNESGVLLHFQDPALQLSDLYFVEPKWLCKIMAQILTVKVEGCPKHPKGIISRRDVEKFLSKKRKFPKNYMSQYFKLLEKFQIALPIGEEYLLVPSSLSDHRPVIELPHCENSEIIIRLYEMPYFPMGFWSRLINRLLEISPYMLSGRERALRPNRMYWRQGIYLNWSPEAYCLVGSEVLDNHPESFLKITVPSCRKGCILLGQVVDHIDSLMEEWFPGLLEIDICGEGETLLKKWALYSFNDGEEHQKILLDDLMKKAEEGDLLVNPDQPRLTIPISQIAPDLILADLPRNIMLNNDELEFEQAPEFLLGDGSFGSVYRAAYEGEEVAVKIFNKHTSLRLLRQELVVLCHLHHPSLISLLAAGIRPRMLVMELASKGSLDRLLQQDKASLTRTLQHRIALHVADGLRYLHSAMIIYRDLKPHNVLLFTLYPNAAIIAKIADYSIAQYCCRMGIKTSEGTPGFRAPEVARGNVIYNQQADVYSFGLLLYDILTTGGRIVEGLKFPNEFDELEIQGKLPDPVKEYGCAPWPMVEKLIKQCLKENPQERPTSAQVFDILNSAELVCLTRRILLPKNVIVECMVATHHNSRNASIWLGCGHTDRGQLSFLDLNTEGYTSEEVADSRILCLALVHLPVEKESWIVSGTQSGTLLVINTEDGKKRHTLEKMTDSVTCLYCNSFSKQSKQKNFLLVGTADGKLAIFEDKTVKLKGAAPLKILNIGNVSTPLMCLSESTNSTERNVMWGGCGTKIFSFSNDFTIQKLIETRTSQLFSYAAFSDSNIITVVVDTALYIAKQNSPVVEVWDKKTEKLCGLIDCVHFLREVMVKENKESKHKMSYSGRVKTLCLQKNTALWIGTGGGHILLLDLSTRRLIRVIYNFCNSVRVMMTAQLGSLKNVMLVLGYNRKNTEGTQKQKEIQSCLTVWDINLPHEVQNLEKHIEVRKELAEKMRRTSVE
Sequence of LRRK2 wild-type (Q5S007 whole entry, looked up): as the sequence (Q5S007 whole entry G2019S, looked up) above, with S2019G counted along it
Sequence of MLK1 (P80192 whole entry, looked up): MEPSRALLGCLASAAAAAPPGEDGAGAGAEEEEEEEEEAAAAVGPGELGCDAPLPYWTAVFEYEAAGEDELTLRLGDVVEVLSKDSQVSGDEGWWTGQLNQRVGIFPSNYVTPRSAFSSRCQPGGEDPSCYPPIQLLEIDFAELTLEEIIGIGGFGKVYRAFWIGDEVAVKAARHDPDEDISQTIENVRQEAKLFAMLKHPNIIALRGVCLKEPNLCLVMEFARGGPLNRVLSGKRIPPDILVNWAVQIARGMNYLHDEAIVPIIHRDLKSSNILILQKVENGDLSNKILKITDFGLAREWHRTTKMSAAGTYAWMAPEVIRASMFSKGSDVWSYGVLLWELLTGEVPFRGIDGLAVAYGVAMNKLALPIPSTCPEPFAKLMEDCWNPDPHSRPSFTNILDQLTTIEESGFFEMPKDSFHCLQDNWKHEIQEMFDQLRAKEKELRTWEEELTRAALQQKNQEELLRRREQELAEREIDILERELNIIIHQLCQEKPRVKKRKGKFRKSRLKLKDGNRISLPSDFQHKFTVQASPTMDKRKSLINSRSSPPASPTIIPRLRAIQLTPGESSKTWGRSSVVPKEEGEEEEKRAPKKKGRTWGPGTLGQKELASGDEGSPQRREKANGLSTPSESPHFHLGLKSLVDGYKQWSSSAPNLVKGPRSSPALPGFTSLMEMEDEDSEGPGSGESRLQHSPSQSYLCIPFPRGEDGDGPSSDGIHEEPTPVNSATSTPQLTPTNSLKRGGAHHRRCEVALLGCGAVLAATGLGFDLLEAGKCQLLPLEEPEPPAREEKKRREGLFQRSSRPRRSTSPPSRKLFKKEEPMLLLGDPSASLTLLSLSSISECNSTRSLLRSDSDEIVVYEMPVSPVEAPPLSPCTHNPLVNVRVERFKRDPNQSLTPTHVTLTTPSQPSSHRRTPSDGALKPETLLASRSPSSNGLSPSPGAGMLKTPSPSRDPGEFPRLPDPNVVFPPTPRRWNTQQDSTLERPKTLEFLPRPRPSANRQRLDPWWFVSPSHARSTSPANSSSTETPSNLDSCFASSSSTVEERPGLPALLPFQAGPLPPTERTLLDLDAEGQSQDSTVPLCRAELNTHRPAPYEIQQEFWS
Sequence of MLK3 (Q16584 whole entry, looked up): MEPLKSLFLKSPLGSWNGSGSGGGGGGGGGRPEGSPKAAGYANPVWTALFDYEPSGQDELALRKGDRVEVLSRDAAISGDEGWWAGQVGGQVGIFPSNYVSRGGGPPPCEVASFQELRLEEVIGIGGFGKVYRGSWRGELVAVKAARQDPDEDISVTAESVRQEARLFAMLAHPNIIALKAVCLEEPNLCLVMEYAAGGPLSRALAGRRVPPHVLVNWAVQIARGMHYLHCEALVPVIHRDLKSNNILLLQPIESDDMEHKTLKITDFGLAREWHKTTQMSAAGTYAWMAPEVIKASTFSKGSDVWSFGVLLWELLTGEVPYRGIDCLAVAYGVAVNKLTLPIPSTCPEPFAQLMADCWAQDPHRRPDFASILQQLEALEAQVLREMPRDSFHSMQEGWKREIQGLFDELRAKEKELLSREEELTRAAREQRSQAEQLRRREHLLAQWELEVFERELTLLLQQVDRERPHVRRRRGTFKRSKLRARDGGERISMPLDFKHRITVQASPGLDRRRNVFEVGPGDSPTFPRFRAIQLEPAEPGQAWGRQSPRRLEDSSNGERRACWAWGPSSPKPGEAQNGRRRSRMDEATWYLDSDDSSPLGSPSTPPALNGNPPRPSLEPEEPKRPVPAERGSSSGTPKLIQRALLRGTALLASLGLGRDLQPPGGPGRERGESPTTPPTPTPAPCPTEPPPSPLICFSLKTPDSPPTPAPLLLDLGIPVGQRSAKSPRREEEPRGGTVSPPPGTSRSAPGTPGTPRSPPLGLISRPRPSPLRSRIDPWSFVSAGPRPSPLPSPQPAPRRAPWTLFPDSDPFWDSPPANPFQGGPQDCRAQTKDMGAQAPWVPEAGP

`CCS(=O)(=O)N1CC[C@H](Nc2c(Br)cnc3[nH]c(-c4cc(C)n(-c5cccc(S(=O)(=O)N6CCOCC6)c5)c4C)nc23)C1` [Example 11, (S)-6-bromo-2-(2,5-dimethyl-1-(3-(morpholinosulfonyl)phenyl)-1H-pyrrol-3-yl)-N-(1-(ethylsulfonyl)pyrrolidine-3-yl)-3H-imidazo[4,5-b]pyridine-7-amine]: the inhibition at 10 µM was over 50% in test [1] (setting [6]); over 50% in test [2] (72 h); 10 to 50% in test [3] (U-937, 72 h). In addition, the IC50 at MLK3 came to 7 nM. Also, the “Relative degree of expression inhibition (%) α-SMA” value with α-SMA was found to be 24.73%. Moreover, the “Relative degree of expression inhibition (%) Fibronectin-1” value in the test on Fibronectin-1 stood at 86.85%. Moreover, the “Relative degree of expression inhibition (%) TGF-β1” value with TGF-β1 was found to be 99.40%. Further, the results for the remaining binding at 0.1 µM on LRRK2 mutant (G2019S) and on LRRK2 wild-type were 7.9% and 28%, respectively. Besides, the remaining binding at 0.5 µM at LRRK2 mutant (G2019S) was found to be 1.7%; at LRRK2 wild-type, 6.9%.

On to `CCS(=O)(=O)N1CC[C@H](Nc2c(Br)cnc3[nH]c(-c4cc(C)n(-c5ccccc5)c4C)nc23)C1` [Example 25, (S)-6-bromo-2-(2,5-dimethyl-1-phenyl-1H-pyrrol-3-yl)-N-(1-(ethylsulfonyl)pyrrolidine-3-yl)-3H-imidazo[4,5-b]pyridine-7-amine], for which the inhibition at 10 µM in test [1] (setting [7]) was over 50%; in test [2] (10 μM, 72 hours, CCK-8), over 50%; in test [3] (setting [8]) it was 10 to 50%. In addition, the IC50 against MLK2 is 250 nM; at MLK3, 26 nM; against MLK1, 71 nM. Besides, the figures for the remaining binding at 0.1 µM at LRRK2 mutant (G2019S) and at LRRK2 wild-type were 15% and 49%, respectively. Also, the values for the remaining binding at 0.5 µM at LRRK2 mutant (G2019S) and at LRRK2 wild-type were 3.3% and 17%, respectively.

With `Cc1cc(-c2nc3c(Nc4cccc(S(N)(=O)=O)c4)c(Br)cnc3[nH]2)c(C)n1-c1cc(S(N)(=O)=O)ccc1Cl` [Example 36, 3-(3-(6-bromo-7-((3-sulfamoylphenyl)amino)-3H-imidazo[4,5-b]pyridine-2-yl)-2,5-dimethyl-1H-pyrrole-1-yl)-4-chlorobenzenesulfonamide], the inhibition at 10 µM was under 10% in test [1] (setting [7]); under 10% in test [2] (10 μM, 72 hours, CCK-8); under 10% in test [3] (setting [8]). Besides, the IC50 at MLK3 amounted to 46 nM. Also, in the test on α-SMA, the “Relative degree of expression inhibition (%) α-SMA” value was 79.46%. Further, the “Relative degree of expression inhibition (%) Fibronectin-1” value in the test with Fibronectin-1 worked out at 82.94%. Moreover, the “Relative degree of expression inhibition (%) TGF-β1” value in the test on TGF-β1 amounted to 66.72%.

For `CCS(=O)(=O)N1CC[C@H](Nc2ccnc3nc(-c4cc(C)n(-c5ccc(OCCN6CCOCC6)cc5)c4C)[nH]c23)C1` [Example 53, (S)-2-(2,5-dimethyl-1-(4-(2-morpholinoethoxy)phenyl)-1H-pyrrol-3-yl)-N-(1-(ethylsulfonyl)pyrrolidine-3-yl)-1H-imidazo[4,5-b]pyridine-7-amine], the concentration for half-maximal inhibition (IC50) worked out at 23200 nM on MLK3 and 10600 nM at MLK1. For the same molecule, in the test with α-SMA, the “Relative degree of expression inhibition (%) α-SMA” value is 74.74%. Also, in the test on Fibronectin-1, the “Relative degree of expression inhibition (%) Fibronectin-1” value was 69.92%. In addition, in the test on TGF-β1, the “Relative degree of expression inhibition (%) TGF-β1” value came out at 33.15%.

For the molecule `CCS(=O)(=O)N1CC[C@H](Nc2c(Br)cnc3[nH]c(-c4cc(C)n(-c5cccc(C(=O)O)c5)c4C)nc23)C1` [Example 58, (S)-3-(3-(6-bromo-7-((1-(ethylsulfonyl)pyrrolidine-3-yl)amino)-3H-imidazo[4,5-b]pyridine-2-yl)-2,5-dimethyl-1H-pyrrol-1-yl)benzoic acid], the inhibition at 10 µM in test [1] (setting [7]) was under 10%; in test [2] (10 μM, 72 hours, CCK-8) it was under 10%; in [4] (setting [9]) it was under 10%; in test [3] (setting [8]), under 10%; in test [5] (setting [10]), under 10%. Besides, the half-inhibitory concentration (IC50) on MLK3 was found to be 53 nM. Also, in the test with α-SMA, the “Relative degree of expression inhibition (%) α-SMA” value is 66.53%. Also, in the test on Fibronectin-1, the “Relative degree of expression inhibition (%) Fibronectin-1” value amounted to 69.83%. Moreover, in the test with TGF-β1, the “Relative degree of expression inhibition (%) TGF-β1” value is 48.93%. Further, the remaining binding at 0.1 µM on LRRK2 mutant (G2019S) is 1.4%; at LRRK2 wild-type, 5%. Further, the remaining binding at 0.5 µM at LRRK2 mutant (G2019S) turned out to be 0.2%; on LRRK2 wild-type it was 0.7%.

Take `CCS(=O)(=O)N1CC[C@H](Nc2c(Br)cnc3nc(-c4cc(C)n(-c5cc(NC(=O)CN6CCN(C)CC6)ccc5C)c4C)[nH]c23)C1` [Example 76, N-(3-(3-(6-bromo-7-(((S)-1-(ethylsulfonyl)pyrrolidine-3-yl)amino)-1H-imidazo[4,5-b]pyridine-2-yl)-2,5-dimethyl-1H-pyrrol-1-yl)-4-methylphenyl)-2-(4-methylpiperazine-1-yl) acetamide]: at MLK3, the IC50 turned out to be 63 nM. The “Relative degree of expression inhibition (%) α-SMA” value in the test with α-SMA turned out to be 69.54%. Besides, the “Relative degree of expression inhibition (%) Fibronectin-1” value in the test with Fibronectin-1 stood at 93.95%. Besides, the “Relative degree of expression inhibition (%) TGF-β1” value in the test with TGF-β1 stood at 121.79%. At LRRK2 mutant (G2019S), the remaining binding at 0.1 µM is 0.9% and the remaining binding at 0.5 µM was determined as 0.1%. In addition, at LRRK2 wild-type, the remaining binding at 0.1 µM is 3.6% and the remaining binding at 0.5 µM came out at 1.1%.

Turning to `CCS(=O)(=O)N1CC[C@H](Nc2c(Br)cnc3nc(-c4cc(C)n(-c5cccc(C(=O)N6CCN(C)CC6)c5C)c4C)[nH]c23)C1` [Example 81, (3-(3-(6-bromo-7-(((S)-1-(ethylsulfonyl)pyrrolidine-3-yl)amino)-1H-imidazo[4,5-b]pyridine-2-yl)-2,5-dimethyl-1H-pyrrol-1-yl)-2-methylphenyl) (4-methylpiperazine-1-yl) methanone], the inhibition at 10 µM in [1] (setting [6]) is over 50%; in [2] (72 h), over 50%; in test [4] (A549, 72 h, read-out: Cancer cell proliferation inhibitory activity A549), 10 to 50%; in test [3] (U-937, 72 h), over 50%; in [5] (72 h, read-out: Cancer cell proliferation inhibitory activity Hs746T), 10 to 50%. For the same molecule, the IC50 was 9 nM on MLK3 and 14 nM against MLK1. For the same molecule, the “Relative degree of expression inhibition (%) α-SMA” value with α-SMA amounted to 61.69%. For the same molecule, in the test on Fibronectin-1, the “Relative degree of expression inhibition (%) Fibronectin-1” value is reported as 61.05%. Further, the “Relative degree of expression inhibition (%) TGF-β1” value in the test with TGF-β1 is 44.28%. For the same molecule, the remaining binding at 0.1 µM was determined as 0% on LRRK2 mutant (G2019S) and 0.7% at LRRK2 wild-type. The remaining binding at 0.5 µM at LRRK2 mutant (G2019S) was found to be 0.1%; at LRRK2 wild-type, 0.6%.

Regarding `Cc1ccc(NC(=O)CN2CCOCC2)cc1-n1c(C)cc(-c2nc3ncc(Br)c(Nc4cccc(S(N)(=O)=O)c4)c3[nH]2)c1C` [Example 88, N-(3-(3-(6-bromo-7-((3-sulfamoylphenyl)amino)-1H-imidazo[4,5-b]pyridine-2-yl)-2,5-dimethyl-1H-pyrrol-1-yl)-4-methylphenyl)-2-morpholinoacetamide], the inhibition at 10 µM in [1] (setting [7]) was over 50%; in [2] (10 μM, 72 hours, CCK-8), over 50%; in [4] (setting [9]) it was 10 to 50%; in test [3] (setting [8]) it was 10 to 50%; in [5] (setting [10]) it was over 50%. Also, the IC50 on MLK3 was 52 nM; against MLK1, 82 nM. Further, the “Relative degree of expression inhibition (%) α-SMA” value in the test on α-SMA was 74.86%. Also, in the test on Fibronectin-1, the “Relative degree of expression inhibition (%) Fibronectin-1” value stood at 86.78%. For the same molecule, the “Relative degree of expression inhibition (%) TGF-β1” value in the test on TGF-β1 worked out at 56.45%. The remaining binding at 0.1 µM was 57% at LRRK2 mutant (G2019S) and 73% at LRRK2 wild-type. Also, the remaining binding at 0.5 µM amounted to 19% at LRRK2 mutant (G2019S) and 46% at LRRK2 wild-type.

By IC50 is commonly meant the concentration that inhibits the measured activity by half.
